Measured values: patent US8846719B2, “Isoxazolo-pyridine derivatives” (Roche Palo Alto LLC, priority 2007, dated 2014)

Biological target: human GABA A receptor α5β3γ2 (Homo sapiens (Human), UniProt P18507+P31644)
Assay: [3H]flumazenil competition binding assay, human GABA A α5β3γ2 receptors expressed in HEK293 cells
Details: human receptor; displacement of [3H]flumazenil (0.5 nM); means of two determinations; read-out: hKi GABAAa5
Procedure: The affinity of compounds at GABA A receptor subtypes was measured by competition for [3H]flumazenil (85 Ci/mmol; Roche) binding to HEK293 cells expressing rat (stably transfected) or human (transiently transfected) receptors of composition α1β3γ2, α2β3γ2, α3β3γ2 and α5β3γ2.
Cell pellets were suspended in Krebs-tris buffer (4.8 mM KCl, 1.2 mM CaCl2, 1.2 mM MgCl2, 120 mM NaCl, 15 mM Tris; pH 7.5; binding assay buffer), homogenized by polytron for ca. 20 sec on ice and centrifuged for 60 min at 4° C. (50000 g; Sorvall, rotor: SM24=20000 rpm). The cell pellets were resuspended in Krebs-tris buffer and homogenized by polytron for ca. 15 sec on ice. Protein was measured (Bradford method, Bio-Rad) and aliquots of 1 mL were prepared and stored at −80° C.
Assays were incubated to equilibrium for 1 hour at 4° C. and harvested onto GF/C uni-filters (Packard) by filtration using a Packard harvester and washing with ice-cold wash buffer (50 mM Tris; pH 7.5). After drying, filter-retained radioactivity was detected by liquid scintillation counting. Ki values were calculated using Excel-Fit (Microsoft) and are the means of two determinations.

Structure (SMILES)	Ki
CC(O)CNC(=O)c1ccc(OCc2conc2-c2ccc(Cl)cc2)nc1 (stereo not drawn) [Example 347, 6-[3-(4-Chloro-phenyl)-isoxazol-4-ylmethoxy]-N-(2-hydroxy-propyl)-nicotinamide]	7.1 nM
O=C(NCCO)c1ccc(OCc2conc2-c2ccc(F)cc2)nc1 [Example 338, 6-[3-(4-Fluoro-phenyl)-isoxazol-4-ylmethoxy]-N-(2-hydroxy-ethyl)-nicotinamide]	23.3 nM
Cc1onc(-c2cccc(Cl)c2)c1COc1ccc(C(=O)NC2CC2)cn1 [Example 100, 6-[3-(3-Chloro-phenyl)-5-methyl-isoxazol-4-ylmethoxy]-N-cyclopropyl-nicotinamide]	7.6 nM
CC(C)NC(=O)c1ccc(OCc2conc2-c2ccc(Cl)cc2)nc1 [Example 344, 6-[3-(4-Chloro-phenyl)-isoxazol-4-ylmethoxy]-N-isopropyl-nicotinamide]	5.6 nM
Cc1onc(-c2cc(F)ccc2F)c1COc1ccc(C(=O)NC2CCOCC2)cn1 [Example 266, 6-[3-(2,5-Difluoro-phenyl)-5-methyl-isoxazol-4-ylmethoxy]-N-(tetrahydro-pyran-4-yl)-nicotinamide]	4.3 nM
Cc1onc(-c2ccccc2)c1COc1ccc(C(=O)NCCCCCO)cn1 [Example 221, N-(5-Hydroxy-pentyl)-6-(5-methyl-3-phenyl-isoxazol-4-ylmethoxy)-nicotinamide]	4.1 nM
Cc1onc(-c2ccc(F)cn2)c1COc1ccc(C(=O)NC(C)(C)CO)cn1 [Example 291, 6-[3-(5-Fluoro-pyridin-2-yl)-5-methyl-isoxazol-4-ylmethoxy](2-hydroxy-1,1-dimethyl-ethyl)-nicotinamide]	1.2 nM
O=C(NC1CC1)c1ccc(OCc2c(-c3ccc(F)cc3)noc2C(F)(F)F)nc1 [Example 143, N-Cyclopropyl-6-[3-(4-fluoro-phenyl)-5-trifluoromethyl-isoxazol-4-ylmethoxy]-nicotinamide]	38.4 nM
CC(=O)NCCNC(=O)c1ccc(OCc2conc2-c2ccc(Cl)cc2)nc1 [Example 356, N-(2-Acetylamino-ethyl)-6-[3-(4-chloro-phenyl)-isoxazol-4-ylmethoxy]-nicotinamide]	13.1 nM
Cc1onc(-c2ccccc2F)c1COc1ccc(C(=O)NC2CCOCC2)cn1 [Example 87, 6-[3-(2-Fluoro-phenyl)-5-methyl-isoxazol-4-ylmethoxy]-N-(tetrahydro-pyran-4-yl)-nicotinamide]	4.6 nM
Cc1onc(-c2ccc(F)c(F)c2)c1COc1ccc(C(=O)NC2CCOCC2)cn1 [Example 127, 6-[3-(3,4-Difluoro-phenyl)-5-methyl-isoxazol-4-ylmethoxy]-N-(tetrahydro-pyran-4-yl)-nicotinamide]	2.4 nM
Cc1onc(-c2ccc(Cl)cc2)c1COc1ccc(C(=O)NCC2CC2)cn1 [Example 118, 6-[3-(4-Chloro-phenyl)-5-methyl-isoxazol-4-ylmethoxy]-N-cyclopropylmethyl-nicotinamide]	1.3 nM
Cc1onc(-c2ccc(F)cc2)c1COc1ccc(C(=O)NCC2CC2)cn1 [Example 106, N-Cyclopropylmethyl-6-[3-(4-fluoro-phenyl)-5-methyl-isoxazol-4-ylmethoxy]-nicotinamide]	1.5 nM
C[C@@H](CO)NC(=O)c1ccc(OCc2conc2-c2ccc(F)cc2)nc1 [Example 327, 6-[3-(4-Fluoro-phenyl)-isoxazol-4-ylmethoxy]-N—((S)-2-hydroxy-1-methyl-ethyl)-nicotinamide]	13.9 nM
Cc1onc(-c2ccccc2)c1COc1ccc(C(=O)N[C@H]2CCCC[C@@H]2O)cn1 [Example 198, N-((1S,2S)-2-Hydroxy-cyclohexyl)-6-(5-methyl-3-phenyl-isoxazol-4-ylmethoxy)-nicotinamide]	6.5 nM
Cc1onc(-c2ccncc2)c1COc1ccc(C(=O)N2CCOCC2)cn1 [Example 151, [6-(5-Methyl-3-pyridin-4-yl-isoxazol-4-ylmethoxy)-pyridin-3-yl]-morpholin-4-yl-methanone]	84.5 nM
Cc1onc(-c2ccncc2)c1COc1ccc(C(=O)N2CCS(=O)(=O)CC2)cn1 [Example 153, (1,1-Dioxo-1λ6-thiomorpholin-4-yl)-[6-(5-methyl-3-pyridin-4-yl-isoxazol-4-ylmethoxy)-pyridin-3-yl]-methanone]	65.7 nM

Further lines, results first:

Ki	Structure (SMILES)
2.8 nM	Cc1onc(-c2ccccc2)c1COc1ccc(C(=O)NCc2nc(C#N)cs2)cn1 [Example 21, N-(4-Cyano-thiazol-2-ylmethyl)-6-(5-methyl-3-phenyl-isoxazol-4-ylmethoxy)-nicotinamide]
29.8 nM	Cc1onc(-c2cccnc2)c1COc1ccc(C(=O)NCC2CC2)cn1 [Example 156, N-Cyclopropylmethyl-6-(5-methyl-3-pyridin-3-yl-isoxazol-4-ylmethoxy)-nicotinamide]
1.4 nM	Cc1onc(-c2ccccc2)c1COc1ccc(C(=O)NC2(C)COC2)cn1 [Example 232, N-(3-Methyl-oxetan-3-yl)-6-(5-methyl-3-phenyl-isoxazol-4-ylmethoxy)-nicotinamide]
18.6 nM	Cc1onc(-c2ccccc2)c1COc1ncc(C(=O)NC(C)C)cc1Br [Example 68, 5-Bromo-N-isopropyl-6-(5-methyl-3-phenyl-isoxazol-4-ylmethoxy)-nicotinamide]
2.1 nM	Cc1onc(-c2ccc(Cl)cc2)c1COc1ccc(C(=O)NCC(F)(F)F)cn1 [Example 117, 6-[3-(4-Chloro-phenyl)-5-methyl-isoxazol-4-ylmethoxy]-N-(2,2,2-trifluoro-ethyl)-nicotinamide]
9.4 nM	CC(=O)Nc1ccc(OCc2c(-c3ccccc3)noc2C)nc1 [Example 179, N-[6-(5-Methyl-3-phenyl-isoxazol-4-ylmethoxy)-pyridin-3-yl]-acetamide]
2 nM	Cc1onc(-c2ccccc2)c1COc1ccc(C(=O)N[C@H]2CCC[C@@H]2O)cn1 (single isomer, unassigned) [Example 212, N-((1S,2S)-2-Hydroxy-cyclopentyl)-6-(5-methyl-3-phenyl-isoxazol-4-ylmethoxy)-nicotinamide or N-((1R,2R)-2-hydroxy-cyclopentyl)-6-(5-methyl-3-phenyl-isoxazol-4-ylmethoxy)-nicotinamide]
1.2 nM	Cc1onc(-c2ccc(F)cc2)c1COc1ccc(C(=O)NCC(F)(F)F)cn1 [Example 105, 6-[3-(4-Fluoro-phenyl)-5-methyl-isoxazol-4-ylmethoxy]-N-(2,2,2-trifluoro-ethyl)-nicotinamide]
17.4 nM	COC(=O)c1ccc(OCc2c(-c3cccc(F)c3)noc2C)nc1 [Example 88, 6-[3-(3-Fluoro-phenyl)-5-methyl-isoxazol-4-ylmethoxy]-nicotinic acid methyl ester]
24.3 nM	CNC(=O)c1ccc(OCc2c(-c3ccccc3)noc2C(F)(F)F)nc1 [Example 129, N-Methyl-6-(3-phenyl-5-trifluoromethyl-isoxazol-4-ylmethoxy)-nicotinamide]
0.7 nM	Cc1onc(-c2ccccc2)c1COc1ccc(C(=O)N[C@@H](C)CO)cn1 [Example 196, N—((S)-2-Hydroxy-1-methyl-ethyl)-6-(5-methyl-3-phenyl-isoxazol-4-ylmethoxy)-nicotinamide]
48 nM	Cc1onc(-c2ccccc2)c1COc1ccc(C(=O)N2CCCC2C)cn1 (stereo not drawn) [Example 227, [6-(5-Methyl-3-phenyl-isoxazol-4-ylmethoxy)-pyridin-3-yl]-(2-methyl-pyrrolidin-1-yl)-methanone]
2.3 nM	Cc1onc(-c2ccccc2)c1COc1ccc(C(=O)NCC(O)C(F)(F)F)cn1 (stereo not drawn) [Example 186, 6-(5-Methyl-3-phenyl-isoxazol-4-ylmethoxy)-N-(3,3,3-trifluoro-2-hydroxy-propyl)-nicotinamide]
37.8 nM	Cc1onc(-c2ccccc2)c1COc1cc(C(=O)NCC(F)(F)F)ccn1 [Example 58, 2-(5-Methyl-3-phenyl-isoxazol-4-ylmethoxy)-N-(2,2,2-trifluoro-ethyl)-isonicotinamide]
37.3 nM	Cc1onc(-c2ccccc2)c1COc1ccc(C(=O)N2CCSC2)cn1 [Example 242, [6-(5-Methyl-3-phenyl-isoxazol-4-ylmethoxy)-pyridin-3-yl]-thiazolidin-3-yl-methanone]
4.1 nM	Cc1onc(-c2ccc(Cl)cc2)c1COc1ccc(C(=O)NC(C)(C)CO)cn1 [Example 254, 6-[3-(4-Chloro-phenyl)-5-methyl-isoxazol-4-ylmethoxy]-N-(2-hydroxy-1,1-dimethyl-ethyl)-nicotinamide]
34.4 nM	COC(=O)c1cnc(OCc2c(-c3ccccc3)noc2C)c(Br)c1 [Example 64, 5-Bromo-6-(5-methyl-3-phenyl-isoxazol-4-ylmethoxy)-nicotinic acid methyl ester]
47.7 nM	COC(=O)[C@H](Cc1ccccc1)NC(=O)c1ccc(OCc2c(-c3ccccc3)noc2C)nc1 [Example 229, (S)-2-{[6-(5-Methyl-3-phenyl-isoxazol-4-ylmethoxy)-pyridine-3-carbonyl]-amino}-3-phenyl-propionic acid methyl ester]
4.8 nM	Cc1onc(-c2ccccc2)c1COc1ccc(C(=O)N[C@@H]2CCCC[C@@H]2O)cn1 (single isomer, unassigned) [Example 203, N-((1R,2S)-2-Hydroxy-cyclohexyl)-6-(5-methyl-3-phenyl-isoxazol-4-ylmethoxy)-nicotinamide or N-((1S,2R)-2-Hydroxy-cyclohexyl)-6-(5-methyl-3-phenyl-isoxazol-4-ylmethoxy)-nicotinamide]
